Earlier results in patent US20110245352A1, “Composition For Permeabilizing The Walls Of Microorganisms Comprising The Combination Of Ethylenediaminetetraacetic Acid (EDTA) And Polyethyleneimine (PEI)” (Millipore Corporation, priority 2007, published 2011).

Tested on: gram-positive bacteria
Details: EDTA taken alone; in particular gram-positive bacteria

O=C(O)CN(CCN(CC(=O)O)CC(=O)O)CC(=O)O [EDTA, Ethylenediaminetetraacetic acid]
Permeabilization of microorganism walls for labeling of nucleic acids: does not allow satisfactory permeabilization
